A short description of data set [1]: Simulation of CVs fit to experimental data: Li+ association/dissociation with charged anolyte. In kind it is physicochemical. The method, then:
To obtain values for the rates for association as well as the equilibrium constant for formation of Li-9a, the redox system proposed in Scheme 9 was computationally modeled. Diffusion constants for the anolyte were calculated to be on the order of 2×10^−9 m^2/s by analysis of changes in the potential at the first reductive couple with variable scan rates. This value was applied for all species in the simulation based on their similar molecular weights. A resistance of 400 ohms and no capacitance was simulated for all couples. With these parameters, the simulations were fit to experimental data acquired at variable scan rates (FIG. 9) in order to estimate the rate constants for association and dissociation of Li^+. The experimentally measured CVs features were accurately reproduced when the rate constant for Li^+ coordination was 10 M^−1s^−1 and the rate constant for dissociation was 0.5 s^−1. These rate constants indicate that the equilibrium constant for binding of Li^+ to 9a^(−) is on the order of 20 M^−1.
This system was further investigated at higher concentrations of Li^+. CVs were acquired at concentrations of LiBF4 ranging from 57 mM to 260 mM with a constant 0.1 M concentration of 9a (FIG. 9b; solid lines). As expected, higher concentrations of LiBF4 led to greater currents from the oxidation of Li-9a. The calculated rate constants (ki=10 M^−1s^−1, k^−1=0.5 s^−1) were employed to model the effects of LiBF4 concentration on the current peak-heights. The results are illustrated in FIG. 9b (dashed lines) and are in full agreement with the experimentally measured CVs.

Data set [2] in a line: Cyclic voltammetry (CV) of anolyte candidates in a three-electrode cell. In kind it is physicochemical. Conditions: for current ratio i9a(−)/iLi-9a: 0.1 M LiBF4 in MeCN; for baseline (initial) current at starting potential of +1 V: MeCN/LiBF4, 0.01 M, 100 mV/s.
The next data set can be described thus: physchem. To be noted: organic solvent or mixture, thermodynamic from solid.
Data set [3] in a line: Stability of solutions in MeCN monitored by 1H NMR or UV-vis spectroscopy. In kind it is physicochemical. Here is the method:
The stabilities of 10a, 10a^(•) and Na-10a^(−) were monitored as solutions in MeCN by ^1H NMR spectroscopy or UV-vis spectroscopy. Separate solutions of 10a, 10a^(•) and Na-10a^(−) in MeCN were prepared at 480 mM, 540 mM and 39 mM concentrations, respectively. The parent compound 10a was monitored by ^1H NMR spectroscopy against an internal standard of 1,3,5-trimethoxybenzene. […] Solutions of the reduced species 10a^(•) and Na-10a^(−) were stored at room temperature under nitrogen, and the concentrations of the solutions were measured periodically over 36 h or 48 h by UV-vis spectroscopy (FIG. 13).

The nature of data set [4]: Solubility in MeCN by UV-vis spectroscopy under inert atmosphere.
Experimental: (§1) The solubilities of 10a, 10a^(•), and Na-10a^(−) were determined by UV-vis spectroscopy in MeCN under an inert atmosphere.
(§2) A saturated solution of 10a^(•) was prepared and analyzed at 322 nm by UV-vis spectroscopy.
Setting [5] is: simulation fit to experimental CVs at variable scan rates, MeCN/LiBF4.
The mark [6] stands for this setting: MeCN/LiBF4, cathodic sweep starting at +1 V.

We go through three molecules from patent US11056705B2, “Organic anolyte materials for flow batteries” (THE REGENTS OF THE UNIVERSITY OF MICHIGAN, priority 2015, dated 2021).

Values joined by “and” are separate entries in the source; they are usually repeats but may differ in a detail not shown here. Equal values may be shown once.

Experimental for physchem: as §1, §2

Consider `COC(=O)c1cc[n+](C)cc1.F[B-](F)(F)F` [Compound 9a], for which the diffusion constant in data set [1] (from changes in potential at the first reductive couple with variable scan rates) is recorded as ~2×10^−9 m^2/s. Moreover, in data set [1] (from the fitted rate constants), the “equilibrium constant for binding of Li^+” value was about 20 M⁻¹. For the same molecule, the “rate constant for Li^+ coordination” value in data set [1] (setting [5]) is 10 M⁻¹ s⁻¹. Besides, in data set [1] (setting [5]), the “rate constant for dissociation” value is 0.5 s⁻¹. Also, the figures for the “current ratio i9a(−)/iLi-9a” value in data set [2] (50 mV/s), in data set [2] (200 mV/s) and in data set [2] (500 mV/s) were 32, 11 and 6, respectively. In data set [2] (MeCN, 0.1 M LiBF4), the “potential at which charged anolyte is oxidized (discharged)” value is −1.7 V. Also, the “current at +0.4 V (lithium adduct formation)” value in data set [2] (MeCN, 0.1 M LiBF4, 200 mV/s) is “almost no current was detected”. Moreover, the “first single-electron reduction (step i)” value in data set [2] (setting [6]) is recorded as −1.1 V. In data set [2] (setting [6]), the “second single-electron reduction (step ii)” value is −1.9 V.
For `CC(=O)c1cc[n+](C)cc1` [Compound 10a], the solubility in “physchem” was 1600 ± 100 mM. In data set [3] (480 mM in MeCN, 1H NMR vs internal standard, four days, in the presence of air and moisture), the decomposition in solution entry is recorded as “No measurable decomposition”. Besides, in data set [2] (MeCN/LiBF4), the “difference of first reduction potential, 9a versus 10a” value was found to be 0.1 V; the “peak height ratios of two reductive couples” value is “close to 1”; the “second reduction more positive than that of 9a” value was determined as 0.4 V. In addition, in data set [2], the “baseline (initial) current at starting potential of +1 V” value is given as “no analogous current is observed”.
For `CC([O-])=C1C=CN(C)C=C1.[Na+]` [Na-10a^(−)], the “concentration of solution on storage” value in data set [3] (MeCN, room temperature under nitrogen, UV-vis over 36 h or 48 h, 540 mM (10a•), 39 mM (Na-10a−)) is reported as “did not change”. Further, the “solubility (saturation concentration)” value in data set [4] is 62 ± 7 mM. Further, in data set [2], the “baseline (initial) current at starting potential of +1 V” value was 40-50 μA and 45 μA.
